Results taken from patent publication US8337828B2, “Use of thymosin alpha 1, alone or in combination with PTX3 or ganciclovir, for the treatment of cytomegalovirus infection” (priority 2006, dated 2012).
Ends that are not written are not given here.

Experiments:
MCMV = MCMV infection in mice, virus titers by standard plaque assay on tissues; format: in vivo, BALB/c and C57BL6 mice
Experimental: BALB/c (FIG. 1a) and C57BL6 (FIG. 1b) mice were infected with 1×10^5 or 5×10^5 PFU of MCMV, respectively. Virus titers were quantified on MEF cells by standard plaque assay on tissues removed at different times (FIG. 1a) or a week after infection (FIG. 1b) and expressed as log 10(mean±standard errors, SE). Thymosin alpha 1 (200 μg/kg given for 7 or 14 days) and GCV (40 mg/kg given three times a week) were administered beginning the day of the infection. Controls received the scrambled peptide. Results are representative of 4 independent experiments. Bars indicate the standard errors. *P<0.05, viral load between treated and untreated mice.
BALB/c or C57BL6 mice were infected with 10^5 or 5×10^5 PFU of MCMV, respectively. Virus titers, expressed as log 10, were quantified on MEF cells by standard plaque assay on lung tissues removed 7 days after the infection. Tα1 (200 μg/kg/daily for a week) and/or GCV (40 mg/kg, three times a week) were administered beginning the day of the infection. Cytokine (pg/ml) levels in culture supernatants of spleen cells (7 days) were determined by ELISA assay. Bars indicate the standard errors. *P<0.05, treated vs untreated mice. Results are representative of 3 independent experiments.
Inbred C57BL6 and BALB/c mice were injected intraperitoneally (i.p.) with 1×10^5 (BALB/c) or 5×10^5 (C57BL6) plaque forming units (PFU) of MCMV. Virus titers were quantified on MEF cells by standard plaque assay on tissues removed a day after treatment. Treatments were as follow: Tα1 ([…]) and PTX3 (1 mg/k/ip) (SIGMA-Tau, Pomezia, Rome, Italy) were given daily for 7 consecutive days beginning the day of the infection. Controls received the scrambled peptide. All organs from uninfected animals were negative viruses. Virus titers are expressed as log 10 (mean±standard errors, SE).
Mice. Wild-type (WT) inbred C57BL6 and BALB/c mice, 8 to 12 weeks old, were purchased from Charles River Breeding Laboratories (Calco, Italy). Pairs of homozygous TLR9-(TLR9−/−), TLR4-(TLR4−/−), and MyD88-(MyD88−/−)-deficient mice (on the C57BL6 background), were bred under specific pathogen-free conditions at the breeding facilities of the University of Perugia, Perugia, Italy. Experiments were performed following protocols approved by the institutional animal committee and in accordance with European Economic Community Council Directive as well as institutional animal care and use guidelines.
Virus, infection and treatments. Stocks of Smith strain MCMV salivary gland extracts were prepared from BALB/c mice and titered in a standard plaque assay on BALB/c murine embryonic fibroblast (MEF) cells (J. Gen. Virol. 2002; 83:2983-2993). Mice were injected intraperitoneally (i.p.) with 1×10^5 (C57BL6) plaque forming units (PFU) of MCMV. Virus titers were quantified on MEF cells by standard plaque assay on tissues removed at different times. Treatments were as follows: Thymosin alpha 1 and the scrambled polypeptide (both from SciClone Pharmaceuticals, San Mateo, CA) were supplied as purified (the endotoxin levels were <0.03 pg/ml, by a standard limulus lysate assay) sterile, lyophilized, acetylated polypeptide. The sequences were as follows: Ac-Ser-Asp-Ala-Ala-Val-Asp-Thr-Ser-Ser-Glu -Ile-Thr-Thr-Lys-Asp-Leu-Lys-Glu-Lys-Lys-Glu-Val-Glu-Glu-Ala-Glu-Asn-O (Tα1) SEQ ID NO:1 and Ac-Ala-Lys-Ser-Asp-Val-Lys-Ala-Glu-Thr-Ser-Ser-Glu-Ile-Asp-Thr-Thr-Glu-Leu -Asp-Glu-Lys-Val-Glu-Val-Lys-Ala-Asn-Glu-OH (scrambled peptide) SEQ ID NO:2. The lyophilized powders were reconstituted in sterile water and 200 μg/kg/i.p. were given daily for 7 or 14 consecutive days beginning the day of the infection. Gancyclovir (GCV) (Cymevene; from Recordati, Milan, Italy) was administered at 40 mg/kg/i.p. three times a week, every other day, beginning 6 h after infection. Controls received the scrambled peptide or the diluent alone.
Plaque assay. Plaque assay was determined on cells grown to subconfluence and incubated with serially diluted virus samples for 2 h at 37° C. (10). […]

IRF7 = assay: Immunoblot analysis of nuclear IRF7 in DC subsets; format: cell-based, BALB/c mice; details: pDC, 50 μg/ml, alone or in combination with virus
Experimental: (FIG. 3a) CD11b+DC or pDC were generated from bone marrow of BALB/c mice, infected with MCMV and assessed for morphology by light microscopy and viral replication by real-time PCR of MCMV gB transcripts expression (both at 48 h) or for IRF7 nuclear expression by immunobloting with anti-IRF7 (2 h later). Cells were exposed (+) or not (−) to 50 μg/ml Thymosin alpha 1 for 2 h at 37° C. before infection. − represents uninfected cells. The results shown represent one representative experiment out of 3.
Immunoblot analysis of IRF7. DC were exposed for […] 50 μg/ml Thymosin alpha 1 or 10^5 PFU MCMV, either alone or in combination. Nuclear extracts were prepared with NE-PER nuclear and cytoplasmic extraction reagents (Pierce, Celbio S.r.l., Milan, Italy) and the protein concentration of the nuclear extracts was determined with a BCA-200 protein assay kit (Pierce) following the manufacture's instructions. Nuclear content of IRF7 was determined by Western blot using rabbit anti-IRF7 (H246) antibody and bovine anti-rabbit-horseradish peroxidase (Santa Cruz Biotechnology). Visualization was performed with the ECL Western blotting analysis system from Amersham and Kodak Biomax films.

[1] = system: human non-small cell lung cancer ("NSCLC") cells; details: subcutaneous administration; cited from earlier work

Question: Which results are given for “Ac-Ser-Asp-Ala-Ala-Val-Asp-Thr-Ser-Ser-Glu -Ile-Thr-Thr-Lys-Asp-Leu-Lys-Glu-Lys-Lys-Glu-Val-Glu-Glu-Ala-Glu-Asn-O (Ac-SDAAVDTSSEITTKDLKEKKEVEEAEN) [Thymosin alpha 1, acidic peptide present in thymus extract with immunoregulatory properties]”?
Answer: viral load in different visceral organs (MCMV; 200 μg/kg for 7 days, both susceptible (BALB/c) and resistant (C57BL6) mice): significantly decreased the viral load; viral load (MCMV; BALB/c mice infected with a higher PFU (data not shown)): significantly decreased the viral load; viral load in visceral organs (MCMV; Thymosin alpha 1 given for 14 days, compared with 7 days): higher; viral titers in the lung (MCMV; Tα1 alone, 200 μg/kg/ip daily for 7 days, BALB/c or C57BL6 mice): decreased the viral titers; viral load in salivary gland and liver (MCMV; resistant (C57BL6) mice, a week after infection): particularly evident; nuclear IRF7 expression (translocation) (IRF7): translocation of IRF7; tumor volume [1]: significantly decreased tumor volume
